Columns and labels:
[1] = tested on: phospholipase A2 (PLA2) contained in the membrane fraction of rabbit heart; assay: Inhibitory activity against phospholipase A2 (PLA2) contained in the membrane fraction of rabbit heart; format: biochemical; details: CaCl2 added, 37° C., 30 minutes
Protocol: (§1) A. Inhibitory activity against phospholipase A2 (PLA2) contained in the membrane fraction of rabbit heart or the supernatant fraction thereof (method) An NZW male rabbit was anesthetized by the intravenous administration of pentobarbital sodium to take out its heart. This heart was washed with ice cooled physiological saline to recover a ventricle, followed by the addition of ice-cooled 0.25M sucrose/20 mM tris hydrochloride buffer (pH: 8.0) in an amount of 5 ml per g of the ventricle. The obtained mixture was mashed with a homogenizer in ice water for 30 minutes and centrifuged at 1,000 g for 10 min. The supernatant was further centrifuged at 105,000 g for 60 min. The centrifugation was conducted at 0° to 4° C. The obtained supernatant was used as such as the supernatant fraction for examination. The precipitate was suspended in the same buffer as that described above and used as the membrane fraction for examination. The protein concentrations of these fractions were each adjusted to 5 mg/ml as determined by Lowry method. […] The test tubes of the membrane fraction were kept at 37° C. for 30 minutes for incubation, while those of the supernatant fraction were kept at 37° C. for 5 minutes for incubation. Each incubation was stopped by the addition of 1 ml of Dole reagent. […] The amount of ^14 C was determined with a liquid scintillation counter. Mepacrine was selected as a comparative compound. (Results)

[2] = tested on: phospholipase A2 (PLA2) contained in the supernatant fraction of rabbit heart; assay: Inhibitory activity against phospholipase A2 (PLA2) contained in the supernatant fraction of rabbit heart; format: biochemical; details: EGTA added, 37° C., 5 minutes
Protocol: as §1

| Structure (SMILES) | PLA2 -inhibitory activity IC30, membrane fraction [1] [µM] | PLA2 -inhibitory activity IC30, supernatant fraction [2] [µM] |
| --- | --- | --- |
| CN(C(=O)/C=C/c1ccc(-n2ccnc2)cc1)c1ccc(S(=O)(=O)N[C@@H]2C[C@H]3CC[C@@H]2C3)cc1 (relative stereo) [Example 31, (±)-N-(exo-2-norbornyl)-4-{N-methyl-N-[(E)-3-[4-(1-imidazolyl)phenyl]-2-propenoyl]amino}benzenesulfonamide] | 0.42 | 29 |
| CN(C(=O)/C=C/c1ccc(O)c(O)c1)c1ccc(S(=O)(=O)NC2Cc3ccccc3C2)cc1 [Example 2, N-(2-indanyl)-4-{N-methyl-N-[(E)-3-(3,4-dihydroxyphenyl)-2-propenoyl]amino}benzenesulfonamide] | 4.48 | 40 |
| CN(C(=O)/C=C/c1ccc(OC(=O)CN)c(OC(=O)CN)c1)c1ccc(S(=O)(=O)NC2Cc3ccccc3C2)cc1 [Example 3, N-(2-indanyl)-4-{N-methyl-N-[(E)-3-[3,4-diglycyloxyphenyl)-2-propenoyl]amino}benzenesulfonamide] | 2.4 |  |
| CN(C(=O)/C=C/c1ccc(O)c(O)c1)c1ccc(S(N)(=O)=O)cc1 [Example 65, 4-{N-methyl-N-[(E)-3-(3,4-dihydroxyphenyl)-2-propenoyl]amino}benzenesulfonamide] | 16 |  |
| COc1ccc(/C(=C/C(=O)Nc2ccc(S(N)(=O)=O)cc2)c2cccnc2)cc1OC [Example 72] | 41 |  |
| CN(C(=O)/C=C/c1ccc(O)c(F)c1)c1ccc(S(=O)(=O)NC2CCCCCCC2)cc1 [Example 87, N-cyclooctyl-4-{N-methyl-N-[(E)-3-(3-fluoro-4-hydroxyphenyl)-2-propenoyl]amino}benzenesulfonamide] | 2.1 |  |

Second part, the compound after the results:

| PLA2 -inhibitory activity IC30, membrane fraction [1] [µM] | PLA2 -inhibitory activity IC30, supernatant fraction [2] [µM] | Structure (SMILES) |
| --- | --- | --- |
| 0.015 | 61 | CN(C(=O)/C=C/c1ccc(S(C)(=O)=O)cc1)c1ccc(S(=O)(=O)NC2CCCCN(Cc3ccccc3)C2)cc1 (racemic) [Example 9, (±)-[1-benzyl-3-hexamethyleneimino]-4-{N-methyl N-[(E)-N-3-(4-methylsulfonylphenyl)-2-propenoyl]amino)benzenesulfonamide] |
| 0.007 | 49 | CN(C(=O)/C=C/c1ccc(S(C)(=O)=O)cc1)c1ccc(S(=O)(=O)NC2CCN(CCc3ccccc3)CC2)cc1 [Example 5, N-[1-(2-phenylethyl)-4-piperidyl]-4-{N-methyl-N-[(E)-3-(4-methylsulfonylphenyl) -2-propenoyl]amino}benzenesulfonamide] |
| 0.016 | > 30 | CN(C(=O)/C=C/c1ccc(S(C)(=O)=O)cc1)c1ccc(S(=O)(=O)NC2CCCCCC2)cc1 [Example 14, N-pycloheptyl-4-(N-methyl-N-[(E)-3-(4-methylsulfonylphenyl)-2-propenoyl]amino}benzenesulfonamide] |
| 0.18 | > 100 | CN(C(=O)/C=C/c1ccc(S(C)(=O)=O)cc1)c1ccc(S(=O)(=O)NCCc2ccccn2)cc1 [Example 18, N-[2-(2-pyridyl)ethyl]-4-{N-methyl-N-[(E)-3-(4-methylsulfonylphenyl) -2-propenoyl]amino}benzenesulfonamide] |
| 0.045 | 92 | CN(C(=O)/C=C/c1ccc(S(C)(=O)=O)cc1)c1ccc(S(=O)(=O)N2CCCN(CC3CCCCC3)CC2)cc1 [Example 20, (E)-N-methyl-N-[4-(4-cyclohexylmethyl-1-homopiperazinyl)sulfonylphenyl]-3 (4 methylsulfonylphenyl)-2-propenamide] |
